From patent US11717476B2, “Moringa peregrina seed extract rich in 2,5-diformylfuran, process for obtaining same and use thereof in cosmetic compositions” (priority 2020, dated 2023)

Columns and labels:
telomerase = assay: Telomerase activity in adult keratinocytes in monolayer culture (PCR-ELISA kit); type: cell-based, human; settings: 100 ng/ml; 24 hours
Description: Protocol: Human keratinocytes were obtained from a donor. To perform the experiments, the keratinocytes were used at a low passage level (i.e., cell isolation passage number 2). The cells were grown as a monolayer until they reached about 75% of confluence before being used in the experiment. Reference product: FK228 at 100 ng/ml was used as a reference inducer of telomerase 1 activity. Incubation protocol: […] At the end of the incubation period, the telomerase was extracted from the cells and its activity was determined by means of a specific, sensitive kit. The principle of the telomerase kit is to measure the telomerase activity by coupling a PCR step (in which telomerase functions as regards its elongation activity) with an ELISA step for semi-quantitative determination of amounts of telomerase elongation product. The results are expressed in arbitrary units for the telomerase activity level (mean±S.D). The significance level between the “vehicle” and the “reference product” was evaluated by means of a Student's t test (*: p<0.05). The significance level between “control” and “test compound” was evaluated independently for each product by a one-way analysis of variance (one-way ANOVA) followed by a Holm-Sidak test (*: p<0.05).

phospholipase A2 = target: T1, phospholipase A2 (Homo sapiens, UniProt P39877); assay: sPLA2 (type V) Inhibitor Screening Assay Kit; type: biochemical; settings: 1 mg in 100 μl
T1 construct: purchased
T1 sequence (P39877 21-138): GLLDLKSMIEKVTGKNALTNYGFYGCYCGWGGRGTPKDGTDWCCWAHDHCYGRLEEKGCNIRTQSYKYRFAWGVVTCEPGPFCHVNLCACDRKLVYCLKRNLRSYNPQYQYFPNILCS
Source text: The object of this study is to evaluate the modulation of the […] activity of the enzyme phospholipase A2 by one or more samples in an in vitro acellular model by means of the “SPLA2 (type V) Inhibitor Screening Assay Kit”. Phospholipase A2 is a key enzyme upstream of the inflammatory process which is triggered by the arachidonic cascade. A buffered solution of phospholipase A2 reacts with a specific substrate, diheptanoyl thio-PC, and transforms it into a compound which binds to a chromogen, DTNB, with agitation at room temperature. The phospholipase A2 activity may thus be evaluated by measuring the absorbance at 413 nm. […] The substrate transformed by the enzyme is stained by means of the chromogen DTNB by agitation at room temperature. […] The modulation of this activity is expressed as a percentage of inhibition or of activation of the phospholipase A2 activity in the absence of the active agent, i.e. only in the presence of the enzyme substrate (diheptanoyl thio-PC).
At the end of the incubation period, the activity of the enzyme phospholipase A2 with and without the test product or the reference product is evaluated by measuring the absorbance of the reaction media at 413 nm. For each concentration tested, the modulation of the phospholipase A2 enzymatic activity with the test product is calculated according to the following formula. […]

| SMILES | increase of telomerase activity (telomerase) [%] | inhibition of PLA2 activity (phospholipase A2) [%] |
| --- | --- | --- |
| C/C=C1\NC(=O)[C@H]2CSSCC/C=C/[C@H](CC(=O)N[C@H](C(C)C)C(=O)N2)OC(=O)[C@H](C(C)C)NC1=O [FK228] | 28.0 | – |
| CCCCCCCCCCCCCCCCSC[C@H](COP(=O)(O)OCC[N+](C)(C)C)NC(=O)CCCCCCCCCCCCCCC [thioetheramide-PC] | – | 93 |
